{"source": "patent US9051240B2", "about": "“Substituted 2-[2-(phenyl) ethylamino] alkaneamide derivatives and their use as sodium and/or calcium channel modulators” (Newron Pharmaceuticals S.P.A., priority 2007, dated 2015)", "note": "Counter-ions that a name gives are not always drawn.", "data": [{"tested_on": "Na+ currents in ND7/23 cells (TTX-s)", "test": "Patch clamp evaluation of Na+ currents blockade in ND7/23 cell line", "format": "cell-based, rat", "conditions": "calculated from Kr and Kdep, read-out: Ki (apparent affinity for the inactivated state)", "procedure": "(§1) ND7/23 (ECACC No 92090903 from SIGMA), is a hybrid cell line derived from a neonatal rat DRG fused with the mouse neuroblastoma N18Tg2 (Wood et al., Proc. Biol. Sci., 1990 September, 241(1302), 187-194).\n(§2) The molecular identity of the channels responsible for the TTX-s conductance is unknown but it is presumed that TTX-s conductance arises from the activity of a mixed population of sodium channels.\n(§3) Cells are routinously maintained in DMEM with 10% of FBS, 4 mM glutamine, 1 mM sodium piruvate. The day before the patch clamp experiment cells are detached and seeded at 100,000 cells/polylysine-coated 35 mm Petri dish.\n(§4) Experiments on ND7/23 cells were carried out using standard whole cell patch clamp methods (Hamill et al., Pfugers Arch., 1981 August, 391(12), 85-100), as described in previous section.\n(§5) To test the effect of compounds on sodium currents in ND7/23 cells, holding membrane potential was set at −90 mV, then a two step protocol was used to determine the voltage dependence of the block. Sodium currents were activated by a 30 ms step pulse to 0 mV (test pulse) from a 2000 ms preconditioning potential of −110 mV (resting condition) and a potential of ˜−70 mV (half maximal steady-state condition).\n(§6) Tonic block of resting and depolarized currents at a given drug concentration was calculated as the difference between the peak Na^+ current in the control external bath solution and peak currents with the test substance divided by control peak.\n(§7) Drug concentration-inhibition curves were obtained by plotting tonic blocks in the resting and depolarized condition, versus drug concentrations. Dose-response curves were fitted to the tonic block data, according to the logistic equation: y=A2+(A1−A2)/[1+(x/IC50)p]. A1 and A2 are fixed values of 0 and 1 corresponding to 0 and 100% current inhibition, x is the drug concentration, IC50 is the drug concentration resulting in 50% current inhibition and p is the corresponding slope factor.\n(§8) The apparent affinity of drug for the inactivated state (Ki) was calculated according to the equation 1/Kdep=h/Kr+(1−h)/Ki where Kr is the affinity of drug for the resting/closed state; Kdep is the IC50 in the depolarized condition, h and (1−h) are the fractions of channels present at the rest. and dep. potentials, respectively.\n(§9) Control bath solution contained (mM): NaCl 80, Choline HCl 40, CaCl2 1.3, MgCl2 2, KCl 2, CdCl2 0.4, NiCl2 0.3, TEACl 20, Hepes 10, Glucose 10.\n(§10) Internal pipette solution consisted of (mM): CsF 65, CsCl 65, NaCl 10, CaCl2 1.3, MgCl2 2, Hepes 10, EGTA 10, MgATP 1.\n(§11) Compounds were dissolved as stock solutions (20 mM) in DMSO. They were diluted to the final concentrations in the external solution.", "units": {"Ki": "nM"}, "values": [{"smiles": "CCCCOc1cccc(CCNCC(=O)N(C)C)c1F", "note": "[2-[2-(3-Butoxy-2-fluorophenyl)-ethylamino]-N,N-dimethylacetamide]", "Ki": 1000}, {"smiles": "CCCCCOc1cccc(CCNCC(=O)N(C)C)c1.Cl", "note": "[2-[2-(3-Pentyloxyphenyl)-ethylamino]-N,N-dimethylacetamide hydrochloride]", "Ki": 500}]}, {"tested_on": "Na+ currents in ND7/23 cells (TTX-s)", "test": "Patch clamp evaluation of Na+ currents blockade in ND7/23 cell line", "format": "cell-based, rat", "conditions": "read-out: IC50 depolarized, preconditioning potential ~-70 mV", "procedure": "as §1, §2, §3, §4, §5, §6, §7, §8, §9, §10, §11", "units": {"IC50": "nM"}, "values": [{"smiles": "CCCCOc1cccc(CCNCC(=O)N(C)C)c1F", "note": "[2-[2-(3-Butoxy-2-fluorophenyl)-ethylamino]-N,N-dimethylacetamide]", "IC50": 1700}, {"smiles": "CCCCCOc1cccc(CCNCC(=O)N(C)C)c1.Cl", "note": "[2-[2-(3-Pentyloxyphenyl)-ethylamino]-N,N-dimethylacetamide hydrochloride]", "IC50": 700}]}, {"tested_on": "Na+ currents in ND7/23 cells (TTX-s)", "test": "Patch clamp evaluation of Na+ currents blockade in ND7/23 cell line", "format": "cell-based, rat", "conditions": "read-out: IC50 resting (Kr), preconditioning potential -110 mV", "procedure": "as §1, §2, §3, §4, §5, §6, §7, §8, §9, §10, §11", "units": {"IC50": "nM"}, "values": [{"smiles": "CCCCOc1cccc(CCNCC(=O)N(C)C)c1F", "note": "[2-[2-(3-Butoxy-2-fluorophenyl)-ethylamino]-N,N-dimethylacetamide]", "IC50": 13000}, {"smiles": "CCCCCOc1cccc(CCNCC(=O)N(C)C)c1.Cl", "note": "[2-[2-(3-Pentyloxyphenyl)-ethylamino]-N,N-dimethylacetamide hydrochloride]", "IC50": 2900}]}, {"tested_on": "TTXs sodium channels", "test": "TTXs-sodium channel influx assay (fluorescence, ND7/23 cell line)", "format": "cell-based, rat", "conditions": "ND7/23 cells, veratridine 100 μM; read-out: Na+ influx IC50", "procedure": "ND7/23 rat dorsal root ganglion-derived cell line endogenously expresses a mixed population of TTXs sodium channels. These cells lack of TTXr sodium channels as shown by the absence of their respective transcripts.\nND7/23 cells were grown in DMEM supplemented with 10% FBS and 1 mM sodium piruvate. The cells were seeded at 50,000 cells/well on 96 poly-L-lysine-coated plates and further incubated for 18-24 h before use.\nThe Membrane Potential Kit Assay (Molecular Devices), based on a negatively charged fluorescent dye able to monitor changes in membrane potential caused by the sodium influx due to the channel opening, was used for the assay.\nCells were incubated with the dye loading for 30 minutes at 25° C. Then, 100 nM of the toxin Anemonia sulcata (used as enhancer of the channel opener response) alone or in the presence of TTX (as reference standard) or test compound were added for further 15 minutes.\nThe fluorescence (excitation:530 nm, emission: 565 nm wavelength) was measured before and after (40-45 s) the automated injection of the sodium channel opener veratridine (100 μM) using a Victor plate reader (Perkin Elmer).\n(§12) The inhibition curves were calculated from 5 concentrations, each in triplicate, and the IC50 determined using linear regression analysis.", "units": {"IC50": "nM"}, "values": [{"smiles": "CCCCOc1ccc(F)c(CCNCC(=O)N(C)C)c1F.Cl", "note": "[2-[2-(3-Butoxy-2,6-difluorophenyl)-ethylamino]-N,N-dimethylacetamide hydrochloride]", "IC50": 2600}, {"smiles": "CCCCOc1cc(CCNCC(=O)N(C)C)ccc1C.Cl", "note": "[2-[2-(3-Butoxy-4-methylphenyl)-ethylamino]-N,N-dimethylacetamide hydrochloride]", "IC50": 700}, {"smiles": "CCCCOc1cccc(CCNCC(=O)N2CCCC2)c1", "note": "[2-[2-(3-Butoxyphenyl)-ethylamino]-1-pyrrolidin-1-yl-ethanone hydrochloride]", "IC50": 2100}, {"smiles": "CCCCOc1cccc(CCNC(C)(C)C(=O)N(C)C)c1", "note": "[2-[2-(3-Butoxyphenyl)-ethylamino]-2,N,N-trimethylpropanamide hydrochloride]", "IC50": 700}, {"smiles": "CCCCOc1cccc(CCNCC(=O)N(CCCC)CCCC)c1", "note": "[2-[2-(3-Butoxyphenyl)-ethylamino]-N,N-dibutylacetamide hydrochloride]", "IC50": 1200}, {"smiles": "CCCCOc1cccc(CCNCC(=O)N(CC)CC)c1", "note": "[2-[2-(3-Butoxyphenyl)-ethylamino]-N,N-diethylacetamide hydrochloride]", "IC50": 600}, {"smiles": "CCCCCOc1cccc(CCNCC(=O)N(C)C)c1.Cl", "note": "[2-[2-(3-Pentyloxyphenyl)-ethylamino]-N,N-dimethylacetamide hydrochloride]", "IC50": 500}]}, {"target": "MAO-B (Rattus norvegicus (Rat), UniProt P19643)", "sequence (P19643 whole entry)": "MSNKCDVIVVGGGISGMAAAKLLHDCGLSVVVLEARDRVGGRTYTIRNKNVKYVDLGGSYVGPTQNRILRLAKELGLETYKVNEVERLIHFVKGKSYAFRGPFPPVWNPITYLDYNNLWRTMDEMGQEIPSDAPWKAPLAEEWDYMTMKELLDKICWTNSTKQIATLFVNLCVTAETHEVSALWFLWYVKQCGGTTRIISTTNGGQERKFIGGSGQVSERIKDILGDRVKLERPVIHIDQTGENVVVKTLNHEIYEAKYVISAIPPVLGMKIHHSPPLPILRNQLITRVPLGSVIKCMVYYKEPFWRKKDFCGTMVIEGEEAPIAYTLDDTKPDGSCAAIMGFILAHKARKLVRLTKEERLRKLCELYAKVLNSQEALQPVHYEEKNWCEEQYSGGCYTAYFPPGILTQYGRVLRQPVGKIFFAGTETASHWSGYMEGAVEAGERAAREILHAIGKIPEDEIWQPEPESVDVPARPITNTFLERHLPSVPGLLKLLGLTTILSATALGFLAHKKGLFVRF", "test": "In vitro MAO-B enzyme activity assay (radioenzymatic, rat brain mitochondria)", "format": "biochemical", "conditions": "14C-PEA 0.5 μM", "procedure": "Male Wistar rats (Harlan, Italy weighing 175-200 g) were sacrificed under light anaesthesia and brains were rapidly removed and homogenized in 8 volumes of ice-cold 0.32 M sucrose buffer containing 0.1 M EDTA, pH 7.4. The crude homogenate was centrifuged at 2220 rpm for 10 minutes and the supernatant recovered. The pellet was homogenized and centrifuged again. The two supernatants were pooled and centrifuged at 9250 rpm for 10 minutes at +4° C. The pellet was resuspended in fresh buffer and centrifuged at 11250 rpm for 10 minutes at +4° C. The resulting pellet was stored at −80° C. The enzyme activity was assessed with a radioenzymatic assay using the substrate ^14C-phenylethylamine (PEA) specific for MAO-B. The mitochondrial pellet (500 μg protein) was resuspended in 0.1 M phosphate buffer (pH 7.4). 200 μl of the suspension were added to a 50 μl solution of the test compound or buffer, and incubated for 30 min at 37° C. (preincubation) then the substrate (50 μl) was added. The incubation was carried out for 10 minutes at 37° C. (^14C-PEA, 0.5 μM). The reaction was stopped by adding 0.2 ml of perchloric acid. After centrifugation, the deaminated metabolites were extracted with 3 ml of toluene and the radioactive organic phase containing the neutral and/or acidic metabolites formed as a result of MAO-B activity was measured by liquid scintillation spectrometry at 90% efficiency. The MAO-B activity was expressed as nmoles of substrate transformed/mg protein/min.", "units": {"IC50": "nM"}, "values": [{"smiles": "CCCCOc1ccc(F)c(CCNCC(=O)N(C)C)c1F.Cl", "note": "[2-[2-(3-Butoxy-2,6-difluorophenyl)-ethylamino]-N,N-dimethylacetamide hydrochloride]", "IC50": "> 300000"}]}, {"tested_on": "L-type calcium channels", "test": "Calcium channel influx assay (fluorescence, AtT20 cell line)", "format": "cell-based, mouse", "conditions": "AtT20 cells, 100 mM KCl depolarization; read-out: Ca++ influx IC50", "procedure": "AtT20/D16v-F2 mouse pituitary tumour cell line preferentially expresses L-type calcium channels.\nAtT20 cells were grown in DMEM with 10% of FBS, 4 mM glutamine. The cells were seeded at 200,000 cells/well on 96 poly-L-lysine-coated plates and further incubated for 18-24 h, before use.\nThe Ca^++ Kit Assay (Molecular Devices), which is based on a fluorescent calcium indicator to detect the calcium influx determined by depolarizing conditions, was used for the assay.\nCells were incubated with the calcium dye loading for 30 min at 37° C. Then, ω-conotoxin alone (1 μM) or in presence of nifedipine (as reference standard) or test compound were added for further 15 min.\nThe fluorescence (excitation: 485-emission: 535 nm wavelength) was measured before and after (30-40 sec) the automated injection of 100 mM KCl depolarizing solution using a Victor plate reader (Perkin Elmer).\nas §12", "units": {"IC50": "nM"}, "values": [{"smiles": "CCCCOc1cc(CCNCC(=O)N(C)C)ccc1C.Cl", "note": "[2-[2-(3-Butoxy-4-methylphenyl)-ethylamino]-N,N-dimethylacetamide hydrochloride]", "IC50": 10000}, {"smiles": "CCCCOc1cccc(CCNCC(=O)N(CCCC)CCCC)c1", "note": "[2-[2-(3-Butoxyphenyl)-ethylamino]-N,N-dibutylacetamide hydrochloride]", "IC50": 1800}, {"smiles": "CCCCOc1cccc(CCNCC(=O)N(CC)CC)c1", "note": "[2-[2-(3-Butoxyphenyl)-ethylamino]-N,N-diethylacetamide hydrochloride]", "IC50": 6700}, {"smiles": "CCCCCOc1cccc(CCNCC(=O)N(C)C)c1.Cl", "note": "[2-[2-(3-Pentyloxyphenyl)-ethylamino]-N,N-dimethylacetamide hydrochloride]", "IC50": 8300}]}, {"tested_on": "mice", "test": "Maximal electroshock test (MES) in mice", "format": "in vivo", "conditions": "Mus musculus, po, read-out: ED50 (mg/kg p.o.)", "source_text": "(§13) The maximal electroshock test (MES) is used commonly in the screening of anti-epileptic drugs in rodent models.\n(§14) Animals and Apparatus: Male CD1 mice weighing 25 g were used. The procedure described by White et al. (White H. S., Woodhead J. H., Franklin M. R., Swinyard E. A., and Wolf H. H. Antiepileptic Drugs (1995) 4th ed: 99-110, Raven Press, Ltd., New York) was followed. An Ugo Basile electroconvulsive generator (Model ECT UNIT 7801) was used to deliver an electrical stimulus sufficient to produce a hindlimb tonic extensor response in at least 97% of control animals. The stimulus was delivered intra-aurally through clip electrodes in mice (0.7 s of a 40 mA shock, with a pulse train of 80 Hz having a pulse duration of 0.4 ms). The acute effect of compounds administered intraperitoneally (i.p.), subcutaneously (s.c.), intravenously (i.v.) or orally (p.o.) 5-120 minutes before MES induction were examined and compared with a vehicle control group. Ten mice were studied per group. Complete suppression of the hindlimb tonic extensor component of seizures was taken as evidence of anticonvulsant activity.\n(§15) The compounds of the invention were administered p.o. or i.v., at the doses of 0.1-100 mg/kg.", "units": {"ED50": "mg/kg"}, "values": [{"smiles": "CCCCCOc1cccc(CCNCC(=O)N(C)C)c1.Cl", "note": "[2-[2-(3-Pentyloxyphenyl)-ethylamino]-N,N-dimethylacetamide hydrochloride]", "ED50": 2.8}]}, {"tested_on": "mice", "test": "Maximal electroshock test (MES) in mice", "format": "in vivo", "conditions": "Mus musculus, po; mice, MES, p.o.; read-out: ED50 (mg/kg p.o.)", "source_text": "as §13, §14, §15", "units": {"ED50": "mg/kg"}, "values": [{"smiles": "CCCCOc1ccc(F)c(CCNCC(=O)N(C)C)c1F.Cl", "note": "[2-[2-(3-Butoxy-2,6-difluorophenyl)-ethylamino]-N,N-dimethylacetamide hydrochloride]", "ED50": 2}]}, {"tested_on": "mice", "test": "Maximal electroshock test (MES) in mice", "format": "in vivo", "conditions": "mice, MES, 10 mg/kg p.o.", "source_text": "as §13, §14, §15", "units": {"% protection 10 mg/kg p.o.": "%"}, "values": [{"smiles": "CCCCOc1ccc(F)c(CCNCC(=O)N(C)C)c1F.Cl", "note": "[2-[2-(3-Butoxy-2,6-difluorophenyl)-ethylamino]-N,N-dimethylacetamide hydrochloride]", "% protection 10 mg/kg p.o.": 100}, {"smiles": "CCCCOc1cc(CCNCC(=O)N(C)C)ccc1C.Cl", "note": "[2-[2-(3-Butoxy-4-methylphenyl)-ethylamino]-N,N-dimethylacetamide hydrochloride]", "% protection 10 mg/kg p.o.": 40}, {"smiles": "CCCCCOc1cccc(CCNCC(=O)N(C)C)c1.Cl", "note": "[2-[2-(3-Pentyloxyphenyl)-ethylamino]-N,N-dimethylacetamide hydrochloride]", "% protection 10 mg/kg p.o.": 100}]}]}
